# Test results: patent US20210395210A1, “INHIBITION OF BACTERIAL CHAPERONIN SYSTEMS” (THE TRUSTEES OF INDIANA UNIVERSITY, priority 2018, published 2021)
# Read-outs that look alike come from different tables or passages of the source.
# Assays:
# [1] = system: Enterococcus faecium (ATCC 19434); assay: Bacterial proliferation assay, E. faecium; format: cell-based
# In short: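 This stagnant growth-inhibition assay used E. faecium (ATCC 19434) in cation-adjusted Brain Heart Infusion medium. Diluted cultures (OD600 0.017) were added to clear flat-bottom 384-well plates containing 0.5 μL compound in 20 μL media. After 24 h without shaking at 37° C., absorbance at 600 nm was measured, corrected with bacteria-free plates, and EC50 values were averaged from quadruplicates.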
# [2] = system: Pseudomonas aeruginosa (ATCC 10145); assay: Bacterial proliferation assay, P. aeruginosa; format: cell-based
# In short: (§1)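 Cation-adjusted BHI (25 mg/L Ca2+, 12.5 mg/L Mg2+); inoculum OD600 0.017; static 37 °C. Read OD600 at 6-8 h for S. aureus, E. cloacae, P. aeruginosa; 24 h for A. baumannii.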
# [3] = system: Methicillin resistant S. aureus (MRSA) (ATCC BAA-44); assay: Bacterial proliferation assay, MRSA; format: cell-based, Staphylococcus aureus
# In short: as §1
# [4] = system: Klebsiella Pneumonia (ATCC 13883); assay: Bacterial proliferation assay, K. pneumoniae; format: cell-based
# In short: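 Growth inhibition of K. pneumoniae (ATCC 13883) was measured in cation-adjusted BHI broth. An overnight culture was sub-cultured 1:5 for 1-2 hours, then diluted to OD600 of 0.017 and dispensed into compound-stamped 384-well plates. Plates were sealed with oxygen-permeable membranes and incubated without shaking at 37° C. for 6-8 h. Absorbance at 600 nm was corrected against bacteria-free control plates, and EC50 was averaged from quadruplicate replicates.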
# [5] = system: Enterobacter cloacae (ATCC 13047); assay: Bacterial proliferation assay, E. cloacae; format: cell-based
# In short: as §1
# [6] = system: Drug sensitive Staphylococcus aureus (ATCC 25923); assay: Bacterial proliferation assay, drug sensitive S. aureus; format: cell-based
# In short: as §1
# [7] = ATCC19434, 24 h, read-out: Bacterial Proliferation EC50 E. faecium
# [8] = ATCC19434, read-out: log(EC50) Bacterial Proliferation Assay C. faecium (converted)
# [9] = ATCC10145, read-out: Bacterial Proliferation EC50 P. aeruginosa
# [10] = ATCC10145, read-out: log(EC50) Bacterial Proliferation Assay P. aeruginosa (converted)
# [11] = Staphylococcus aureus, read-out: log(EC50) Bacterial Proliferation Assay S. aureus Resistant (converted)
# [12] = ATCC13883, read-out: Bacterial Proliferation EC50 K. pneumoniae
# [13] = ATCC13883, read-out: log(EC50) Bacterial Proliferation Assay K. pneumoniae (converted)
# [14] = ATCC13047, read-out: Bacterial Proliferation EC50 E. cloacae
# [15] = ATCC13047, read-out: log(EC50) Bacterial Proliferation Assay E. cloacae (converted)
# [16] = ATCC25923, read-out: Bacterial Proliferation EC50 S. aureus Sensitive
# [17] = ATCC25923, read-out: log(EC50) Bacterial Proliferation Assay S. aureus Sensitive (converted)
# [18] = Staphylococcus aureus, read-out: Bacterial Proliferation EC50 S. aureus Resistant
# [19] = ATCC19434, OD600 at 24 h, read-out: Bacterial Proliferation EC50 E. faecium
# [20] = ATCC19434, log of EC50 (μM scale), with standard deviation, read-out: log(EC50) Bacterial Proliferation Assay C. faecium (converted)
# [21] = ATCC10145, OD600 at 6-8 h, read-out: Bacterial Proliferation EC50 P. aeruginosa
# [22] = ATCC10145, log of EC50 (μM scale), with standard deviation, read-out: log(EC50) Bacterial Proliferation Assay P. aeruginosa (converted)
# [23] = Staphylococcus aureus, MRSA, log of EC50 (μM scale), with standard deviation, read-out: log(EC50) Bacterial Proliferation Assay S. aureus Resistant (converted)
# [24] = ATCC13883, OD600 at 6-8 h, read-out: Bacterial Proliferation EC50 K. pneumoniae
# [25] = ATCC13883, log of EC50 (μM scale), with standard deviation, read-out: log(EC50) Bacterial Proliferation Assay K. pneumoniae (converted)
# [26] = ATCC13047, OD600 at 6-8 h, read-out: Bacterial Proliferation EC50 E. cloacae
# [27] = ATCC13047, log of EC50 (μM scale), with standard deviation, read-out: log(EC50) Bacterial Proliferation Assay E. cloacae (converted)
# [28] = ATCC25923, OD600 at 6-8 h, read-out: Bacterial Proliferation EC50 S. aureus Sensitive
# [29] = ATCC25923, log of EC50 (μM scale), with standard deviation, read-out: log(EC50) Bacterial Proliferation Assay S. aureus Sensitive (converted)
# [30] = Staphylococcus aureus, MRSA, OD600 at 6-8 h, read-out: Bacterial Proliferation EC50 S. aureus Resistant
Compound,"EC50 [1, 19] [µM]","EC50 [1, 20] [µM]","EC50 [2, 21] [µM]","EC50 [2, 22] [µM]","EC50 [3, 23] [µM]","EC50 [4, 24] [µM]","EC50 [4, 25] [µM]","EC50 [5, 26] [µM]","EC50 [5, 27] [µM]","EC50 [6, 28] [µM]","EC50 [6, 29] [µM]","EC50 [3, 30] [µM]",further results
"O=C(Nc1ccc(Oc2ccc(Cl)cc2)c(Cl)c1)c1cc(I)cc(I)c1O [Rafoxanide, rafoxanide, reference compound]",,,,,,,,,,,,,"EC50 [1, 7]: 0.99 µM; EC50 [1, 8]: 1 µM; EC50 [2, 9]: > 100 µM; EC50 [2, 10]: > 100 µM; EC50 ([3]; MRSA, OD600 at 6-8 h, read-out: Bacterial Proliferation EC50 S. aureus Resistant): 0.34 µM; EC50 [3, 11]: 0.347 µM; EC50 [4, 12]: > 100 µM; EC50 [4, 13]: > 100 µM; EC50 [5, 14]: 40 µM; EC50 [5, 15]: 40.7 µM; EC50 [6, 16]: 0.32 µM; EC50 [6, 17]: 0.324 µM"
"O=C(Nc1ccccc1)c1cc(Br)cc(Br)c1O [Compound 13, 3,5-Dibromo-2-hydroxy-N-phenylbenzamide]",,,,,,,,,,,,,"EC50 [1, 7]: > 100 µM; EC50 [1, 8]: > 100 µM; EC50 [2, 9]: > 100 µM; EC50 [2, 10]: > 100 µM; EC50 [3, 18]: 2 µM; EC50 [3, 11]: 2 µM; EC50 [4, 12]: > 100 µM; EC50 [4, 13]: > 100 µM; EC50 [5, 14]: > 100 µM; EC50 [5, 15]: > 100 µM; EC50 [6, 16]: 1.2 µM; EC50 [6, 17]: 1.23 µM"
"O=C(Nc1ccc(Sc2nc3ccccc3s2)c(Cl)c1)c1cc(Br)cc(Br)c1 [Compound 17, N-(4-(Benzo[d]thiazol-2-ylthio)-3-chlorophenyl)-3,5-dibromobenzamide]",> 100,> 100,> 100,> 100,> 100,> 100,> 100,> 100,> 100,> 100,> 100,,
"O=C(Nc1ccc(Sc2nc3ccccc3s2)cc1)c1cccc(Br)c1O [Compound 6, N-(4-(Benzo[d]thiazol-2-ylthio)phenyl)-3-bromo-2-hydroxybenzamide]",,,,,,,,,,,,,"EC50 [1, 7]: 11 µM; EC50 [1, 8]: 11.2 µM; EC50 [2, 9]: > 100 µM; EC50 [2, 10]: > 100 µM; EC50 [3, 18]: 1.1 µM; EC50 [3, 11]: 1.1 µM; EC50 [4, 12]: > 100 µM; EC50 [4, 13]: > 100 µM; EC50 [5, 14]: > 100 µM; EC50 [5, 15]: > 100 µM; EC50 [6, 16]: 0.76 µM; EC50 [6, 17]: 0.759 µM"
"COc1ccccc1C(=O)Nc1cccc(Cl)c1 [Compound 40, N-(3-Chlorophenyl)-2-methoxybenzamide]",> 100,> 100,> 100,> 100,> 100,> 100,> 100,> 100,> 100,> 100,> 100,,
"CC1(C)S[C@@H]2[C@H](NC(=O)[C@H](N)c3ccccc3)C(=O)N2[C@H]1C(=O)O [Ampicillin, ampicillin, reference compound]",6.9,6.92,> 100,> 100,> 100,> 100,> 100,> 100,> 100,0.19,0.195,> 100,
"COc1c(Br)cccc1C(=O)Nc1ccc(Sc2nc3ccccc3s2)cc1 [Compound 34, N-(4-(Benzo[d]thiazol-2-ylthio)phenyl)-3-bromo-2-methoxybenzamide]",> 100,> 100,> 100,> 100,> 100,> 100,> 100,> 100,> 100,> 100,> 100,,
"O=C(Nc1cccc(Cl)c1)c1cc(Br)cc(Br)c1 [Compound 23, 3,5-Dibromo-N-(3-chlorophenyl)benzamide]",> 100,> 100,> 100,> 100,11.7,> 100,> 100,> 100,> 100,14,13.8,12,
"O=C(Nc1ccccc1)c1cc(Br)ccc1O [Compound 15, 5-Bromo-2-hydroxy-N-phenylbenzamide]",> 100,> 100,> 100,> 100,4.07,78,77.6,> 100,> 100,2.8,2.75,4.1,
"O=C(Nc1ccc(Sc2nc3ccccc3s2)cc1)c1cccc(Br)c1 [Compound 21, N-(4-(Benzo[d]thiazol-2-ylthio)phenyl)-3-bromobenzamide]",> 100,> 100,> 100,> 100,> 100,> 100,> 100,> 100,> 100,> 100,> 100,,
"O=C(Nc1cccc(Cl)c1)c1cccc(Br)c1 [Compound 24, 3-Bromo-N-(3-chlorophenyl)benzamide]",> 100,> 100,> 100,> 100,67.6,> 100,> 100,> 100,> 100,47,46.8,68,
"O=C(Nc1ccccc1)c1cccc(Br)c1O [Compound 14, 3-Bromo-2-hydroxy-N-phenylbenzamide]",> 100,> 100,> 100,> 100,10 ± 1.7,> 100,> 100,> 100,> 100,6.4,6.46,10,
